In patent US12239632B2, “Asymmetric allyl tryptamines” (Alexander Shulgin Research Institute, Inc., priority 2021, dated 2025):
Where a name gives a salt, the structure may show the parent alone.

Key:
[1] = biological target: T1, ADRA2A (Homo sapiens, UniProt P08913); assay: In vitro functional activity, ADRA2A antagonist mode; assay type: cell-based
T1 construct: expressed in transfected cells
T1 sequence (P08913 1-465): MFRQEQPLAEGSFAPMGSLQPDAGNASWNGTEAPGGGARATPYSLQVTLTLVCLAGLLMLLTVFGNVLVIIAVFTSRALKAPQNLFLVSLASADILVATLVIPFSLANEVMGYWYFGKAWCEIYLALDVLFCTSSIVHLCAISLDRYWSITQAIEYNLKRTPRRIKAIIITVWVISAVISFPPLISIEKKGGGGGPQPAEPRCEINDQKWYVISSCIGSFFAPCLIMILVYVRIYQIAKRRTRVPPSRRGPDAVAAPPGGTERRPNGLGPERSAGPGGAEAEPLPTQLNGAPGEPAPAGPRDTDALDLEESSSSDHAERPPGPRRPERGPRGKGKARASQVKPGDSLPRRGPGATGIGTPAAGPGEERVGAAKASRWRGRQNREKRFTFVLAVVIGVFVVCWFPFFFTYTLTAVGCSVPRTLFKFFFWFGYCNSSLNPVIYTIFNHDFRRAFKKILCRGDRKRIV
Method: (§1) The assay monitors the activation of a GPCR via Gi and Gs secondary messenger signaling, using ß-Gal as a functional reporter. […] To determine Gi/Gs agonism, media was aspirated from cells and replaced with 15 μL 2:1 HBSS/10 mM HEPES:cAMP XS+Ab reagent. Concentrated (4×) test compound in assay buffer was added to cells and incubated at 37° C. or room temperature for 30 or 60 minutes. For Gi agonist activation, cells were incubated with EC80 forskolin in addition to a test compound. Vehicle concentration was 1%.

[2] = biological target: T2, HTR1A (Homo sapiens, UniProt P08908); assay: In vitro functional activity, HTR1A agonist mode; assay type: cell-based
T2 construct: expressed in transfected cells
T2 sequence (P08908 1-422): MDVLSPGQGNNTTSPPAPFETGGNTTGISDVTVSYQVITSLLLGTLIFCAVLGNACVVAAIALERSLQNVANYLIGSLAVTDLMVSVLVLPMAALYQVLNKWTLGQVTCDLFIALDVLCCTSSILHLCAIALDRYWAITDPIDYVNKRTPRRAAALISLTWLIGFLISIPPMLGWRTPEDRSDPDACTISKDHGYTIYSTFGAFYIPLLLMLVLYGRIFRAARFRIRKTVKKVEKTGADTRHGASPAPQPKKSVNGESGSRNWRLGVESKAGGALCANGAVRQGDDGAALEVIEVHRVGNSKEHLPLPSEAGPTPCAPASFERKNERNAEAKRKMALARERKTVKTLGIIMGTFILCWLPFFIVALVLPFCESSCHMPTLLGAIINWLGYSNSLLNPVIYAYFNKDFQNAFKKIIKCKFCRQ
Method: (§2) Such activity was determined to assess potential neuromodulatory activity and safety liabilities.

[3] = biological target: T3, NET (Homo sapiens, UniProt P23975); assay: Neurotransmitter transporter uptake assay, NET blocker mode; assay type: cell-based
T3 construct: expressed in transfected cells
T3 sequence (P23975 whole entry): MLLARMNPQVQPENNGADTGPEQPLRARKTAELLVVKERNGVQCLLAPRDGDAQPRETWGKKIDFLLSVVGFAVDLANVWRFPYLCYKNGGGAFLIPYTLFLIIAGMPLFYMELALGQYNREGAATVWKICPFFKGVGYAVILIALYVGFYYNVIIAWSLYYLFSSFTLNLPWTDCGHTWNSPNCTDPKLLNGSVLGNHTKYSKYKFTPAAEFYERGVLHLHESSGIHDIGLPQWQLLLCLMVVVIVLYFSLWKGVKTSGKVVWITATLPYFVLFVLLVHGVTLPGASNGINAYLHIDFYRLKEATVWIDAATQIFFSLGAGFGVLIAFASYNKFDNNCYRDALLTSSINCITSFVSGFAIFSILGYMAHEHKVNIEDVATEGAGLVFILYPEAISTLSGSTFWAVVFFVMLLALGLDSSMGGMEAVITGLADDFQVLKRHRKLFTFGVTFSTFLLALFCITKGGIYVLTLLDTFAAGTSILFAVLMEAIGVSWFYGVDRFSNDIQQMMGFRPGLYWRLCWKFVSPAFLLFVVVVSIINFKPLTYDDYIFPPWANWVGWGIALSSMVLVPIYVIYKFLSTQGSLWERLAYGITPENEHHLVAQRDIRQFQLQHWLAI
Method: (§3) Methods—Monoamine Transporter Assay: Neurotransmitter uptake via transporters was measured using the Neurotransmitter Transporter Uptake Assay Kit from Molecular Devices. […] Increased intracellular fluorescence intensity following uptake of biogenic amine neurotransmitters via transporters is measured and can be run in a kinetic or endpoint mode.
(§4) Compound was added and the mixture was incubated. Following compound incubation, dye was added to the wells and the plate was re-incubated. Microplates were then transferred to a PerkinElmer Envision™ instrument for fluorescence signal detection.
(§5) Compound activity was analyzed using CBIS data analysis (ChemInnovation, CA). For blocker mode assays, percentage inhibition was calculated using the following formula: % Inhibition=100%×(1−(mean RLU of test sample−mean RLU of vehicle control)/(mean RLU of positive control−mean RLU of vehicle control)).

[4] = biological target: T4, HTR2A (Homo sapiens, UniProt P28223); assay: Calcium mobilization assay, HTR2A antagonist mode; assay type: cell-based
T4 construct: expressed in transfected cells
T4 sequence (P28223 whole entry): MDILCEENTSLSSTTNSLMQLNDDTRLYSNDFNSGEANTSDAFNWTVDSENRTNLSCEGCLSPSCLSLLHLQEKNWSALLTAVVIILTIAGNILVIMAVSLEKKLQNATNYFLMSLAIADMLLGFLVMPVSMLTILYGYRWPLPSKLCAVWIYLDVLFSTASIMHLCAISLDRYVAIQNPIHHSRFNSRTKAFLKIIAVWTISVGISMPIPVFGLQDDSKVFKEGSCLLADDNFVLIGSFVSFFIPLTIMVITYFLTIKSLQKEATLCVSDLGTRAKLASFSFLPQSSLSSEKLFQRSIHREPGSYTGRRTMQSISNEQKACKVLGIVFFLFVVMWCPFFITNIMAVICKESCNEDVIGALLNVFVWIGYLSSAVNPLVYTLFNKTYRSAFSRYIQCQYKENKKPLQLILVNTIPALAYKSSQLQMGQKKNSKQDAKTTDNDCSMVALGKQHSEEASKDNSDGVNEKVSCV
Method: Cell lines were expanded from freezer stocks and seeded into multi-well microplates. Then, the plates were incubated at 37° C. for an appropriate amount of time and loaded with Dye Loading buffer. […] Activity was measured on a FLIPR Tetra. Calcium mobilization was monitored for 2 minutes.

[5] = biological target: T5, NAV1.5 (Homo sapiens, UniProt Q14524); assay: FLIPR membrane potential ion channel assay, NAV1.5 blocker; assay type: cell-based
T5 construct: expressed in transfected cells
T5 sequence (Q14524 whole entry): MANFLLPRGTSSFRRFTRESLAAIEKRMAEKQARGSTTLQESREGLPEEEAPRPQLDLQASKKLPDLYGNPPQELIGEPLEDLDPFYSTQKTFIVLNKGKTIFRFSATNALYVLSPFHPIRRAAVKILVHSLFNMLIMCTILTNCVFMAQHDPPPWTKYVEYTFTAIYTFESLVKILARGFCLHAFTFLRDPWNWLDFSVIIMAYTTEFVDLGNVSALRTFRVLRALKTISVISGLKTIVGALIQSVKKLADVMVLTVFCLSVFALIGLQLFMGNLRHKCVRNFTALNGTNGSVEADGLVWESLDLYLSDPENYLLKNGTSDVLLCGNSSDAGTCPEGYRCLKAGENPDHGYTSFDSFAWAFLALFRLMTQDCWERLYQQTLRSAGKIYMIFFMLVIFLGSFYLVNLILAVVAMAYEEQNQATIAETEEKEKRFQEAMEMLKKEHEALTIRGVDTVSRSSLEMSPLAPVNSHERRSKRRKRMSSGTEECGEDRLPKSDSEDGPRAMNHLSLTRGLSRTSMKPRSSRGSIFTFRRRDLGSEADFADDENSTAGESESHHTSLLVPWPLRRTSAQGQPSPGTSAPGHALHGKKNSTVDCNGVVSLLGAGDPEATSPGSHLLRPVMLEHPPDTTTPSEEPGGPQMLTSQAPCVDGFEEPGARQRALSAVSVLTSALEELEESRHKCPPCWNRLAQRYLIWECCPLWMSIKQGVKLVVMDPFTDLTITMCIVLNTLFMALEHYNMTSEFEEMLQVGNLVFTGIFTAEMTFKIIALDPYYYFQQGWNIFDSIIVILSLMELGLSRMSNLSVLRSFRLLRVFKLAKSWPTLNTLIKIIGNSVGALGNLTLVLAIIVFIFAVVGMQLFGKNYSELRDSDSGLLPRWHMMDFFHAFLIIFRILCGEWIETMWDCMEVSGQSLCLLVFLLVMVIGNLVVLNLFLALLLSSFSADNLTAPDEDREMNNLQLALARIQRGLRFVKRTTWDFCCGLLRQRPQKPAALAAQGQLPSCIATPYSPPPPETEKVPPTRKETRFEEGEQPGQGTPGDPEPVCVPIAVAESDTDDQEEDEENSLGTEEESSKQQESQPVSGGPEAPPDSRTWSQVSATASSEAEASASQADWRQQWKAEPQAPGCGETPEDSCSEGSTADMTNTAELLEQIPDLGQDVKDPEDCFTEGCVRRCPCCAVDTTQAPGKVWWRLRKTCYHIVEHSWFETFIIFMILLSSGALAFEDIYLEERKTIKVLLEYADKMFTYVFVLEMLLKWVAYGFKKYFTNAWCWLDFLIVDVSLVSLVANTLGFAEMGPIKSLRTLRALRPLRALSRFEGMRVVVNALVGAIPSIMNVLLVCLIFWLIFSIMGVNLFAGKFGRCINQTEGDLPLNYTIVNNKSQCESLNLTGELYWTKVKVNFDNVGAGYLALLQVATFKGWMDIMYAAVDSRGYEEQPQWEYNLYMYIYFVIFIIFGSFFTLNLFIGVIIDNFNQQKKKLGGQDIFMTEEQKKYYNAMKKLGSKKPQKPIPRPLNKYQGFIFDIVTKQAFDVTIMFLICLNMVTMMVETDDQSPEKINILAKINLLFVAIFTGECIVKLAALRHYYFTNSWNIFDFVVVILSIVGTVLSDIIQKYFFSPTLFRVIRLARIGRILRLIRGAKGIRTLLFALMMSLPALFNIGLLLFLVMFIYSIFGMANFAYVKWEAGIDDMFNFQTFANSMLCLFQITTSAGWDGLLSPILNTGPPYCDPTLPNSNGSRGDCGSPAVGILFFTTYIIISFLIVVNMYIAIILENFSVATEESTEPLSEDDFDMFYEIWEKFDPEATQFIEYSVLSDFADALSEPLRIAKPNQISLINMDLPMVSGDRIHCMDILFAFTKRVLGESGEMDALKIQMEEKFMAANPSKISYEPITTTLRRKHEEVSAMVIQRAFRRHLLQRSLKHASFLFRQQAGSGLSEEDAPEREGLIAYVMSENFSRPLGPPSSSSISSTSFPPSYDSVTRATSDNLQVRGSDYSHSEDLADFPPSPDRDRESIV
Method: (§6) Methods—Ion Channel Assay: Membrane potential changes were measured using the FLIPR® Membrane potential Assay Kit. A fluorescent indicator dye in combination with a quencher was used to reflect real-time membrane potential changes associated with ion channel activation and ion transporter proteins. Calcium channel CAV1.2, potassium channel hERG, and sodium channel NAV1.5 were tested.
(§7) To determine agonist and antagonist activity, cell lines were expanded from freezer stocks, seeded into multi-well microplates, and incubated at 37° C. Cells were then loaded with dye and incubated again.
(§8) For agonist determination, cells were incubated with the sample a different dilutions to induce a response. For antagonist determination, cells were pre-incubated with the sample at different dilutions. Following dye administration, the sample was added to the cells in the presence of EC80 agonist and then re-incubated at room temperature in the dark.
(§9) For antagonist mode assays, percentage inhibition was calculated using the following formula: % Inhibition=100%×(1−(mean RLU of test sample−mean RLU of vehicle control)/(mean RLU of EC80 control−mean RLU of vehicle control)).

[6] = biological target: T6, HTR6 (Homo sapiens, UniProt P50406); assay: PathHunter beta-Arrestin assay, HTR6 agonist mode; assay type: cell-based
T6 construct: expressed in transfected cells
T6 sequence (P50406 whole entry): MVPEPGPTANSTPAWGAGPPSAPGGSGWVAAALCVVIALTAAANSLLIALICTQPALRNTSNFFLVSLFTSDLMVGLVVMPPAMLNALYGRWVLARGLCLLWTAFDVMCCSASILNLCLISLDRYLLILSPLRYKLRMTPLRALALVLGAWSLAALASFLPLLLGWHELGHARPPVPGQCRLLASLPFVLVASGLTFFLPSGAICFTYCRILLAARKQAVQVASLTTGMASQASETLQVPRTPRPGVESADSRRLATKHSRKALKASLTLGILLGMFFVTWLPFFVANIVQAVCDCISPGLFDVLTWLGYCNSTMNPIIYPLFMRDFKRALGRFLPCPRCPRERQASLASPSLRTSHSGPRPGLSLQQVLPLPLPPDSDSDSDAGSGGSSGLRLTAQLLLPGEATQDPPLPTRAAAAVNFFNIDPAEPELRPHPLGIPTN
Method: The assay monitors restoration of ß-galactosidase (β-Gal) as a marker of GPCR activation and recruitment of β-Arrestin to the receptor.
3.5 μL of concentrated sample was added to cells and incubated at 37° C. or room temperature for 90 to 180 minutes. Vehicle concentration was 1%.
Assay signal was generated through a single addition of 50% v/v of PathHunter Detection reagent cocktail, followed by a one hour incubation at room temperature. Microplates were read following signal generation with a plate reader set to detect chemiluminescent signals. Compound activity was analyzed using CBIS data analysis suite (ChemInnovation, CA).

[7] = biological target: T7, HTR1B (Homo sapiens, UniProt P28222); assay: In vitro functional activity, HTR1B agonist mode; assay type: cell-based
T7 construct: expressed in transfected cells
T7 sequence (P28222 whole entry): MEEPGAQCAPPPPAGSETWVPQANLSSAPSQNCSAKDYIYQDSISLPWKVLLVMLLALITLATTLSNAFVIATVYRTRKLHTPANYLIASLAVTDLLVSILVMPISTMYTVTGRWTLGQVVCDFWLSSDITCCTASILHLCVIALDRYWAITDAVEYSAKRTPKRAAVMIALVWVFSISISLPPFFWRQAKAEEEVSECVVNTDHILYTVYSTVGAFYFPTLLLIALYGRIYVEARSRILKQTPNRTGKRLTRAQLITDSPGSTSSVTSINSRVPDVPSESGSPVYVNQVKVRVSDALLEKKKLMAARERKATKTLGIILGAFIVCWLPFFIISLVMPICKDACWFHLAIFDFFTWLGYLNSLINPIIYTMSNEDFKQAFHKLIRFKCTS
Method: as §2

[8] = biological target: T8, DRD2S (Homo sapiens, UniProt P14416); assay: HitHunter cAMP assay, DRD2S agonist mode; assay type: cell-based
T8 construct: expressed in transfected cells
T8 sequence (P14416 1-414 isoform P14416-2): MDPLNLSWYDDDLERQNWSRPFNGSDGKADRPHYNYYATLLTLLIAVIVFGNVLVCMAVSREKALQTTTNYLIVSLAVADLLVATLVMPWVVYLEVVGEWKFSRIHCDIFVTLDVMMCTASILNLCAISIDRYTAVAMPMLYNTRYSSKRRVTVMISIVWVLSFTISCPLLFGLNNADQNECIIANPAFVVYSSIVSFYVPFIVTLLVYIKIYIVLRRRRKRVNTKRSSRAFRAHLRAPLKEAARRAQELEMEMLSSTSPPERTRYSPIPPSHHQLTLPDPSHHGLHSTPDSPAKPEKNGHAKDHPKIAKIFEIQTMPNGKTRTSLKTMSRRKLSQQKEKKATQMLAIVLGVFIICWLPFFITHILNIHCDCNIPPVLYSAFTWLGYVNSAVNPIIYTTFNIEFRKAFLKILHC
Method: as §1
Compound activity was analyzed using CBIS data analysis suite (ChemInnovation, CA). For Gs agonist mode assays, percentage activity was calculated using the following formula: % Activity=100%×(mean RLU of test sample−mean RLU of vehicle control)/(mean RLU of MAX control−mean RLU of vehicle control).
For Gi agonist mode assays, percentage activity was calculated using the following formula: % Activity=100%×(1−(mean RLU of test sample−mean RLU of MAX control)/(mean RLU of vehicle control−mean RLU of MAX control)).

[9] = biological target: T9, ADRA1A (Homo sapiens, UniProt P35348); assay: In vitro functional activity, ADRA1A antagonist mode; assay type: cell-based
T9 construct: expressed in transfected cells
T9 sequence (P35348 1-466): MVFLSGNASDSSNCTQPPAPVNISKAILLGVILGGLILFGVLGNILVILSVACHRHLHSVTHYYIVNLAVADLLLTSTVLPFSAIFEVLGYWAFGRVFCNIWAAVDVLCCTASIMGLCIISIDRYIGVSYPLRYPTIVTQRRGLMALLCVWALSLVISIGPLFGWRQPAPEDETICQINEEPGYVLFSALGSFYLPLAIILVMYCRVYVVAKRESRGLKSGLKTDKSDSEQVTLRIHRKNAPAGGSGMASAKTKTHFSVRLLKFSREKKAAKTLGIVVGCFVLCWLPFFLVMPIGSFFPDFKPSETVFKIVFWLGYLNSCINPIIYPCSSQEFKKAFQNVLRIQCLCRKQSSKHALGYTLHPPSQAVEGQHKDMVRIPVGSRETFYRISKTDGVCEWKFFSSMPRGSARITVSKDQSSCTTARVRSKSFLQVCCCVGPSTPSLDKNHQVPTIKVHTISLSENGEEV
Method: as §1

[10] = biological target: T10, HRH1 (Homo sapiens, UniProt P35367); assay: cell-based; assay type: cell-based; details: antagonist mode; for IC50: read-out: EC50/IC50, HRH1 (Antagonist)
T10 construct: expressed in transfected cells
T10 sequence (P35367 whole entry): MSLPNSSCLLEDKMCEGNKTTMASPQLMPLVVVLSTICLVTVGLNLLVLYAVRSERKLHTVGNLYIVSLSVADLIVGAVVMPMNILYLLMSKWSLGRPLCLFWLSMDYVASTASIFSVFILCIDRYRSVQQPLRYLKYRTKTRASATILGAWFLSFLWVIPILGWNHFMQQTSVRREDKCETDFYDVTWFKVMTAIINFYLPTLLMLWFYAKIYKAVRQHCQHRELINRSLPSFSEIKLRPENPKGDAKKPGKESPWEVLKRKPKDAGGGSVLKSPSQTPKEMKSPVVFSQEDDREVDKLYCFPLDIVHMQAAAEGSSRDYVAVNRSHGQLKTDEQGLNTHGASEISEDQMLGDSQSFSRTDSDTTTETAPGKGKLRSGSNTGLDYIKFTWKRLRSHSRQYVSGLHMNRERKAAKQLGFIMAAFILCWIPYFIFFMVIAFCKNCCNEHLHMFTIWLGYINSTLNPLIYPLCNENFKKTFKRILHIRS
Method: as §2

[11] = biological target: T4, HTR2A; assay: Calcium mobilization assay, HTR2A agonist mode; assay type: cell-based; details: for agonist activity at HTR2A: agonist mode
Method: (§10) Compound activity was analyzed using CBIS data analysis suite (ChemInnovation, CA). For agonist mode assays, percentage activity was calculated using the following formula: % Activity=100%×(mean RFU of test sample−mean RFU of vehicle control)/(mean MAX RFU control ligand −mean RFU of vehicle control).

[12] = biological target: T11, SERT (Homo sapiens, UniProt P31645); assay: cell-based; details: blocker mode; read-out: EC50/IC50, SERT (Blocker)
T11 construct: expressed in transfected cells
Method: as §3, §4, §5

[13] = biological target: T12, hERG (Homo sapiens, UniProt Q12809); assay: FLIPR membrane potential ion channel assay, hERG blocker; assay type: cell-based
T12 construct: expressed in transfected cells
Method: as §6, §7, §8, §9

[14] = biological target: T13, HTR2B (Homo sapiens, UniProt P41595); assay: Calcium mobilization assay, HTR2B agonist mode; assay type: cell-based
T13 construct: expressed in transfected cells
Method: as §10

[15] = biological target: T14, DAT (Homo sapiens, UniProt Q01959); assay: Neurotransmitter transporter uptake assay, DAT blocker mode; assay type: cell-based
T14 construct: expressed in transfected cells
Method: as §3, §4, §5

[16] = biological target: T13, HTR2B; assay: Calcium mobilization assay, HTR2B antagonist mode; assay type: cell-based
Method: Activation of the GPCR results in the release of calcium from intracellular stores and an increase in dye fluorescence that can be measured.
Cell lines were expanded from freezer stocks and seeded into multi-well microplates. Then, the plates were incubated at 37° C. for an appropriate amount of time and loaded with Dye Loading buffer. To determine compound agonist activity, cells were incubated with the sample to induce a response, and HBSS/20 mM Hepes was added using a FLIPR Tetra (MDS). Activity was measured on a FLIPR Tetra. Calcium mobilization was monitored for 2 minutes.
To determine compound antagonist activity, cells were pre-incubated with the sample followed by an post-incubation administration of the compound with 3×EC80 agonist using FLIPR. Compound antagonist activity was measured on a FLIPR Tetra (MDS) and calcium mobilization was monitored for 2 minutes.
For antagonist mode assays, percentage inhibition was calculated using the following formula: % Inhibition=100%×(1−(mean RFU of test sample−mean RFU of vehicle control)/(mean RFU of EC80 control−mean RFU of vehicle control)).

[17] = biological target: T15, MAOA (Homo sapiens, UniProt P21397); assay: MAO-A enzyme assay (kynuramine substrate); assay type: biochemical
T15 construct: purchased Sigma
T15 sequence (P21397 1-527): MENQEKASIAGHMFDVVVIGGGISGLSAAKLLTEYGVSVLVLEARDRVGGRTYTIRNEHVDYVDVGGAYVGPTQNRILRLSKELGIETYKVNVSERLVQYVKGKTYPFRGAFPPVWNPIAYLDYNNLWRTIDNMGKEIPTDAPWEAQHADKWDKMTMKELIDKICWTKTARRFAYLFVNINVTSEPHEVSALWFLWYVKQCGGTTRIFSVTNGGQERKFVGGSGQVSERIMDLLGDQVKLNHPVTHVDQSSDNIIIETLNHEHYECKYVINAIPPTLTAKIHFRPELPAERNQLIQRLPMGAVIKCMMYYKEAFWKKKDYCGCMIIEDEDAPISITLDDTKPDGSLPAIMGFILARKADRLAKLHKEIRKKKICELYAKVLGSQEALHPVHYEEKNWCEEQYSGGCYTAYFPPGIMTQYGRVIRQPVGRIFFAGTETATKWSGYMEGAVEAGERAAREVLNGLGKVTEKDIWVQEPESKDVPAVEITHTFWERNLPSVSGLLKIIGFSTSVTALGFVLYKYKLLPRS
Method: Methods—Enzyme Assays: Enzymatic activity was determined by measuring either the consumption of substrate or production of product over time. For MAO-A (Sigma), enzyme and test compound were preincubated for 15 minutes at 37° C. before substrate addition. The reaction was initiated by addition of kynuramine and incubated at 37° ° C. for 30 minutes. The reaction was terminated by addition of NaOH. The amount of 4-hydroxyquinoline formed was determined through spectrofluorimetric readout with the emission detection at 380 nm and excitation wavelength 310 nm.

[18] = biological target: T16, CAV1.2 (Homo sapiens, UniProt Q13936); assay: FLIPR membrane potential ion channel assay, CAV1.2 blocker; assay type: cell-based
T16 construct: expressed in transfected cells
Method: as §6, §7, §8, §9

| Structure (SMILES) | IC50 [1] [µM] | EC50 [2] [µM] | IC50 [3] [µM] | IC50 [4] [µM] | IC50 [5] [µM] | EC50 [6] [µM] | EC50 [7] [µM] | EC50 [8] [µM] | IC50 [9] [µM] | IC50 [10] [µM] | EC50 [11] [µM] | agonist activity at HTR2A [11] | IC50 [12] [µM] | IC50 [13] [µM] | EC50 [14] [µM] | IC50 [15] [µM] | IC50 [16] [µM] | IC50 [17] [µM] | IC50 [18] [µM] | agonistic activity for dopamine receptor D2 short isoform ([8]; agonist mode) | other results |
| --- | --- | --- | --- | --- | --- | --- | --- | --- | --- | --- | --- | --- | --- | --- | --- | --- | --- | --- | --- | --- | --- |
| C=CCN(CCc1c[nH]c2ccc(OC)cc12)C(C)C [ASR-3001, N-isopropyl-N-(2-(5-methoxy-1H-indol-3-yl)ethyl)prop-2-en-1-amine hydrochloride] | > 10 | 0.642 | > 10 | 0.0646 | > 10 | 0.42 | 0.0468 | > 10 | > 10 | > 10 | 0.00985 | potent agonist activity | 6.84 | > 10 | 0.0874 | > 10 | 0.0511 | > 10 | > 10 | – | – |
| C=CCN(CCc1c(C)[nH]c2ccccc12)C(C)C [ASR-3002, N-isopropyl-N-(2-(2-methyl-1H-indol-3-yl)ethyl)prop-2-en-1-amine hydrochloride] | 0.383 | > 10 | > 10 | 4.13 | > 10 | 1.68 | 4.95 | 4.48 | 8.52 | > 10 | 2.6 | potent agonist activity | > 10 | > 10 | 1.28 | > 10 | 0.498 | > 10 | > 10 | agonistic activity | – |
| C=CCN(CCc1c[nH]c2ccccc12)C(C)C [ASR-3003, N-(2-(1H-indol-3-yl)ethyl)-N-isopropylprop-2-en-1-amine hydrochloride] | 3.72 | > 10 | > 10 | 1.41 | > 10 | 4.26 | 0.813 | 0.183 | > 10 | 6.29 | 0.462 | potent agonist activity | 2.37 | > 10 | 2.54 | > 10 | 0.507 | > 10 | > 10 | agonistic activity | potency for DRD2S ([8]; agonist mode): nanomolar level; antagonistic effects at histamine receptor H1 [10]: antagonistic effects |
